Series [1] addresses Dual specificity protein kinase CLK2 (Homo sapiens, UniProt P49760). Description: biochemical.
Series [2] has as its target T1, Dual specificity tyrosine-phosphorylation-regulated kinase 1A (Homo sapiens, UniProt Q13627).
Series [3] addresses T2, Dual specificity protein kinase CLK1 (Homo sapiens, UniProt P49759). Briefly: biochemical. It is filed as cell-based, Sf9.
Series [4] has as its target Dual specificity protein kinase CLK4 (Homo sapiens, UniProt Q9HAZ1). Briefly: biochemical.
For series [5], the target named is Glycogen synthase kinase-3 beta (Homo sapiens, UniProt P49841). Briefly: biochemical. It is filed as cell-based, Sf9.
Chain of Glycogen synthase kinase-3 beta (P49841 whole entry): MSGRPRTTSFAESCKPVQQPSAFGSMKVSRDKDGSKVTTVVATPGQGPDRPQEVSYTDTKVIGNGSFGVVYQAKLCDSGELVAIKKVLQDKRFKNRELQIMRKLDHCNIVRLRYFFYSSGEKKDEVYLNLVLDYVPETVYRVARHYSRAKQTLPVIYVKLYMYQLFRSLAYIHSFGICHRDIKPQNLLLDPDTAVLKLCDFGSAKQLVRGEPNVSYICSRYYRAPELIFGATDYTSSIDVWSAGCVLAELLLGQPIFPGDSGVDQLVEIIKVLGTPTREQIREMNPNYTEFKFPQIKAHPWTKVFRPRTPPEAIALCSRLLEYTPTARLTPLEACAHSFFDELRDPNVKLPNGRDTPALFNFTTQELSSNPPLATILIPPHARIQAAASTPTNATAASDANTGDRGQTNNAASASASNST
The target in series [6] is T2, Dual specificity protein kinase CLK1. Briefly: biochemical. It is filed as cell-based, Sf9. The following applies: read-out: IC50.
In series [7] the target is Casein kinase I isoform epsilon (Homo sapiens, UniProt P49674). Description: biochemical. Format: cell-based, Sf9.
Chain of Casein kinase I isoform epsilon (P49674 whole entry, canonical isoform): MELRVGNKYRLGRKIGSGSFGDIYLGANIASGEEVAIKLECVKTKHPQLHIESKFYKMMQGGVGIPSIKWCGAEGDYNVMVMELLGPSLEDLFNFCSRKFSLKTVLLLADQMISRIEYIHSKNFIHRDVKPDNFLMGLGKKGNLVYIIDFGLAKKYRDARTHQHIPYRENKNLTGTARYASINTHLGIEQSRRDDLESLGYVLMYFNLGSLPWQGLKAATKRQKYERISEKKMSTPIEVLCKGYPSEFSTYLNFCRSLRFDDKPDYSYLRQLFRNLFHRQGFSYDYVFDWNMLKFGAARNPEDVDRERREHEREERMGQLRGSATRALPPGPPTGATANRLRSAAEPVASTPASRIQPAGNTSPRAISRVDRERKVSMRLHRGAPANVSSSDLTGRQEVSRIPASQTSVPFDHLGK
The target of series [8] is T1, Dual specificity tyrosine-phosphorylation-regulated kinase 1A. Briefly: biochemical.
Series [9] addresses Cyclin-dependent kinase 5/CDK5 activator 1 (Homo sapiens, UniProt Q00535). Description: biochemical. It is filed as cell-based, Sf9.
Series [10] concerns the target T3, Dual specificity tyrosine-phosphorylation-regulated kinase 2 (Homo sapiens, UniProt Q92630).
T3 sequence (Q92630 whole entry): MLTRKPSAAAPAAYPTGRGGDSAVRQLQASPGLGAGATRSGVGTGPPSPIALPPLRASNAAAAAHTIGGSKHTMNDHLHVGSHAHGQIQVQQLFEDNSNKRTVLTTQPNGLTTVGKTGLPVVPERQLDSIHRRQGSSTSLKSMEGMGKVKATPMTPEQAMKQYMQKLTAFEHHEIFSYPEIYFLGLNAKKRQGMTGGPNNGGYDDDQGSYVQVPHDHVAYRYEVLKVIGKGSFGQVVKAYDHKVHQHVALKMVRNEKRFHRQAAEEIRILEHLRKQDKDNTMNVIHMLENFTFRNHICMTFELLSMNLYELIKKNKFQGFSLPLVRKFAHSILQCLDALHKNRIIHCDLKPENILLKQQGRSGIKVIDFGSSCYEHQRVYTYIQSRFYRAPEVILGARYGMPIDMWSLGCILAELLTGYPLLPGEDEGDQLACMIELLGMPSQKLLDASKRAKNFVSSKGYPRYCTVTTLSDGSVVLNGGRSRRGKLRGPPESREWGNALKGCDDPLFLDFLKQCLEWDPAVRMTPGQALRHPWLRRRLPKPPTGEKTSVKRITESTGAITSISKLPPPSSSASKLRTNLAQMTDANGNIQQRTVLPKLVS
Description: biochemical. Format: cell-based, Sf9.

Series [11] has as its target Dual specificity protein kinase CLK3 (Homo sapiens, UniProt P49761). Briefly: biochemical. It is filed as cell-based, Sf9.
The next series in a line: in vitro. The following applies: mouse, ht-22.
The target in series [12] is T4, Dual specificity tyrosine-phosphorylation-regulated kinase 4 (Homo sapiens, UniProt Q9NR20).
T4 sequence (Q9NR20 whole entry): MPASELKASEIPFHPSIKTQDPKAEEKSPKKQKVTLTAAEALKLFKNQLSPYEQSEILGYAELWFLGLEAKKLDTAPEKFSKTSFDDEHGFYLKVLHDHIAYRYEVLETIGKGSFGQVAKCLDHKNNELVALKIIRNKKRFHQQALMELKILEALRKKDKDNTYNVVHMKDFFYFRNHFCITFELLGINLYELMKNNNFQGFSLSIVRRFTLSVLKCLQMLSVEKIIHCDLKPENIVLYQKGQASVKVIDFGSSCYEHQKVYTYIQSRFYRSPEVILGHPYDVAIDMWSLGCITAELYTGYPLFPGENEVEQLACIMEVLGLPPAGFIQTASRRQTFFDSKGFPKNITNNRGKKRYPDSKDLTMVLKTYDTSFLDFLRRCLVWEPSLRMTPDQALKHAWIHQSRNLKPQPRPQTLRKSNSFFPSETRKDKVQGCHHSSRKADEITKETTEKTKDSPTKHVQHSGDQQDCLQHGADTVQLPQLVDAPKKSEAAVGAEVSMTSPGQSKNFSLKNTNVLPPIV
Briefly: biochemical. It is filed as cell-based, Sf9.

For series [13], the target named is T5, Dual specificity tyrosine-phosphorylation-regulated kinase 3 (Homo sapiens, UniProt O43781).
T5 sequence (O43781 whole entry): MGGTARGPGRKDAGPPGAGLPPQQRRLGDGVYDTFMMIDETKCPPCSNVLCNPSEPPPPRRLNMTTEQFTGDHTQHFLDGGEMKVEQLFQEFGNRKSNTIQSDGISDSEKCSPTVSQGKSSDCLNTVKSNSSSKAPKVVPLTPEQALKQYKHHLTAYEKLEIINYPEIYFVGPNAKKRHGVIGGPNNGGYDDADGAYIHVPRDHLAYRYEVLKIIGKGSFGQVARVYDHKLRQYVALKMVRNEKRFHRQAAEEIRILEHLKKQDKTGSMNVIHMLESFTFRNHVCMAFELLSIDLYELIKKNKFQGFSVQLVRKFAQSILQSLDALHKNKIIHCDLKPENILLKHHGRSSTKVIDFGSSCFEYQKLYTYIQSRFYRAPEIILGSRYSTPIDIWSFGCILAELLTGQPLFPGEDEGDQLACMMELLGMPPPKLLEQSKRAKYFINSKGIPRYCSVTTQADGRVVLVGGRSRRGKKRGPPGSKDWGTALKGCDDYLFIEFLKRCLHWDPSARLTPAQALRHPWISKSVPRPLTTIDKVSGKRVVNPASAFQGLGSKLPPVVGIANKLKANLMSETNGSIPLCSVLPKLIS
Description: biochemical. Format: cell-based, Sf9.

The structures appear in SMILES notation.

T2 sequence (P49759 whole entry): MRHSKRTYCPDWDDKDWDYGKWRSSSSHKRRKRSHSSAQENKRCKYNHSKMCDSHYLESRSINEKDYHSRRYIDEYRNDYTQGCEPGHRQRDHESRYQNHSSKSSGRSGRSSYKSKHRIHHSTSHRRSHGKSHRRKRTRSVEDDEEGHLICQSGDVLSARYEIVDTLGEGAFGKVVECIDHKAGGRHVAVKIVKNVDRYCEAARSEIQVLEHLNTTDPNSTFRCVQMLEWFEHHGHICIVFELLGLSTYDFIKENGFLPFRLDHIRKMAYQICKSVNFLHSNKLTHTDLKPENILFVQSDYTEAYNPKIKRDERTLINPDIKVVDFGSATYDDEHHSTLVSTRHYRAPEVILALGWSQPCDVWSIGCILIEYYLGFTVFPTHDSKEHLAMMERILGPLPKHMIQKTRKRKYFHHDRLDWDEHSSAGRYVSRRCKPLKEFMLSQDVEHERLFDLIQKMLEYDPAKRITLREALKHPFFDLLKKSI
Chain of Dual specificity protein kinase CLK2 (P49760 whole entry): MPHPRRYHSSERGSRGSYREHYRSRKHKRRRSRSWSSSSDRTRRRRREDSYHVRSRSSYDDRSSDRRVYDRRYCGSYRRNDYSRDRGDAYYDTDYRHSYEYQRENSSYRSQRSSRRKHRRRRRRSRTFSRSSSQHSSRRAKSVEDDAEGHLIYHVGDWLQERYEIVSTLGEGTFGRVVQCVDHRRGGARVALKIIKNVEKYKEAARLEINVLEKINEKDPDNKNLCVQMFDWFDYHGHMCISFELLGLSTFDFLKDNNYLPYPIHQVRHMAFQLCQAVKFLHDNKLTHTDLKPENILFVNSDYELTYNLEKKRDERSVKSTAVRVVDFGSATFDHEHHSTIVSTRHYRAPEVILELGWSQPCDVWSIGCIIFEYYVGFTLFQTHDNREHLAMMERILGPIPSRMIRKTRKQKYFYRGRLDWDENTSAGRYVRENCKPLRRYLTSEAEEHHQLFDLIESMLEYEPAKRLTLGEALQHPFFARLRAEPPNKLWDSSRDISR
Chain of Dual specificity protein kinase CLK4 (Q9HAZ1 whole entry): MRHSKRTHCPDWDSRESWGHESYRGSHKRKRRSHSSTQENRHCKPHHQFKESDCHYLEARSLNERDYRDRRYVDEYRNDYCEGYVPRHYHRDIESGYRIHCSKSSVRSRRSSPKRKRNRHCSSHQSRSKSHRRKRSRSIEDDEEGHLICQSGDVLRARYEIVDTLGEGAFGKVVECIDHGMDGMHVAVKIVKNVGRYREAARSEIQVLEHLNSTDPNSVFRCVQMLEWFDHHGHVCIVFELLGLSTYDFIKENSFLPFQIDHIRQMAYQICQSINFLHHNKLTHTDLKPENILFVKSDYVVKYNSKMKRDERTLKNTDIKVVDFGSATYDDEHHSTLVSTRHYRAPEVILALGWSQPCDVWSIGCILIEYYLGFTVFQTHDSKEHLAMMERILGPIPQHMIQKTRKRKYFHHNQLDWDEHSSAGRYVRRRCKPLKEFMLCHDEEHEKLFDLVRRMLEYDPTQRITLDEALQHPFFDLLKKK
Chain of Dual specificity protein kinase CLK3 (P49761 whole entry): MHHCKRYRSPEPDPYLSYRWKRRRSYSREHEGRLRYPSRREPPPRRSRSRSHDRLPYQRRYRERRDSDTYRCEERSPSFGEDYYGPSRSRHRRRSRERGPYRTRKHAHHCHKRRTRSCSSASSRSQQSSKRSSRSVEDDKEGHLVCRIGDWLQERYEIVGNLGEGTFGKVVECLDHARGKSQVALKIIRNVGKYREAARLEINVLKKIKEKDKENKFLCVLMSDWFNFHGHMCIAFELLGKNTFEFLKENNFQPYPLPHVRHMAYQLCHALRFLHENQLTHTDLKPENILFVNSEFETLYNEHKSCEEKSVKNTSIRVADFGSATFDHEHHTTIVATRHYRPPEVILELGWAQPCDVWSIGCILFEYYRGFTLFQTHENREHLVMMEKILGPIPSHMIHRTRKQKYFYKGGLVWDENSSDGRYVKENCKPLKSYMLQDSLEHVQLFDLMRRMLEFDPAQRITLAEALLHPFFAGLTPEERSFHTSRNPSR
Chain of Cyclin-dependent kinase 5/CDK5 activator 1 (Q00535 whole entry): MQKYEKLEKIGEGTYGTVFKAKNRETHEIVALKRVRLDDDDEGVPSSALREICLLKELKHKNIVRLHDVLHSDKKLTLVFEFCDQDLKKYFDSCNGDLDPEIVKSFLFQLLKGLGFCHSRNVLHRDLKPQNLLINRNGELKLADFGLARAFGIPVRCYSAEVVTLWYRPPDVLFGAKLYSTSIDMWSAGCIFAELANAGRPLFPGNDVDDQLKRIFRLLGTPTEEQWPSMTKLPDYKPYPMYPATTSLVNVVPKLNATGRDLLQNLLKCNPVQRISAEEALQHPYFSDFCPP
Chain of Cyclin-dependent kinase 5/CDK5 activator 1 (Q15078 whole entry, further chain): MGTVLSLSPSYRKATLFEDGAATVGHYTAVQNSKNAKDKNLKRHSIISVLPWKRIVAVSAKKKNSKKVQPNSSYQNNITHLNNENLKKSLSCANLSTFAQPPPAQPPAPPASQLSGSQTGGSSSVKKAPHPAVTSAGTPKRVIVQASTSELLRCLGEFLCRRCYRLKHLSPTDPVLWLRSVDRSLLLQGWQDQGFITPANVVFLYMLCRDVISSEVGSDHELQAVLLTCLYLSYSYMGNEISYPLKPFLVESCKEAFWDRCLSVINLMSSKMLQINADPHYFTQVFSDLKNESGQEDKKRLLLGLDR

On to `O=C(O[C@@H]1Cc2c(O)cc(O)cc2O[C@@H]1c1cc(O)c(O)c(O)c1)c1cc(O)c(O)c(O)c1` [EPIGALOCATECHIN GALLATE], for which the IC50 (as a rule, the concentration needed to halve the response being measured) in series [1] was 1320 nM; in series [2] it was 766 nM; in [3] it was 71.6 nM; in series [4], 368 nM; in series [5] it was 6.27 µM; in [6], over 10 µM. For the same compound, the concentration for half-maximal inhibition (IC50) in [7] was determined as 365 nM; in series [8], 491 nM; in series [9], 431 nM; in [10], 2000 nM; in [11] it was 2580 nM; in series [12], 5.2 µM. The same compound came in with an IC50 in [13] of 1620 nM. Also, the IC50 at 48 h in the series “in vitro” turned out to be 23.8 µM.

The record behind these values is ChEMBL document CHEMBL5247649, “Comparative Efficacy and Selectivity of Pharmacological Inhibitors of DYRK and CLK Protein Kinases” (J Med Chem, 2023).
